Data on 5 molecules can be found in PMC6891598, “Application of N-Dodecyl L-Peptide to Enhance Serum Stability while Maintaining Inhibitory Effects on Myometrial Contractions Ex Vivo” (Molecules, 2019).

Data set [1] concerns intrauterine pressure and pain in women with primary dysmenorrhea. The settings on record: phase Ib; cited from earlier work. An excerpt:
The prostaglandin F2α receptor (FP) is a promising target for delaying labor because of its relevant involvement in parturition. At the beginning of labor and preterm labor, FP expression increases. […] Targeting FP, the tocolytic prototype PDC31 is currently undergoing clinical trials.

The subject of data set [2] is LPS-induced preterm delivery in pregnant CD-1 mice. The settings on record: cited from earlier work. As to the method: (§1) The ability of peptide L-4d to delay labor in vivo was next tested in mice near term and treated with lipopolysaccharide (LPS) Escherichia coli endotoxin, as a pathogen associated molecular pattern, which is known to promote a general inflammatory state resulting in prostaglandin synthesis and induced premature delivery. Following LPS injection into mice (n = 4–5) at gestational day 16, all the animals tested delivered within 12−24 h.

In data set [3] the test system is murine myometrial tissue (PGF2α-induced contractions; FP). The note with it: cited from earlier work. The text has this: Moreover, addition of the dodecyl chain enhanced plasma stability.
The subject of data set [4] is prostaglandin F2α receptor (FP). The settings on record: cited from earlier work. As for the experimental part:
The development of PDC31 originated from a library of sequences based on the second extracellular loop of FP. Short lead peptides were analyzed initially using in vitro and ex vivo analyses. […] Moreover, addition of the dodecyl chain enhanced plasma stability.

Data set [5] in a line: serum stability study (mouse serum/plasma, MS/MS). The note with it: mouse plasma (method: serum), 37 °C, LC-MS/MS, internal standard L-4f; for stability in mouse plasma, in words: incubation up to 2 hours. The format is in vitro ADME. As to the method:
Peptide L-4d was further examined for stability in serum and compared to L-PDC31. The two peptides were incubated at 37 °C in mouse plasma. Aliquots were removed at different time intervals and analyzed by mass spectrometry (MS/MS) to detect remaining amount of peptide (Figure 3).
Serum was […] and kept on ice throughout the procedure. Two blanks were prepared by adding 5 µL of DMSO to 95 µL of serum. These were incubated for 2 h and submitted to the same treatment as the other samples. Two series of vials containing 95 µL of serum were prepared and spiked with either 5 µL of L-PDC31 [0.4 mM] or L-4d [0.4 mM], and incubated for 120, 60, 30, 15, 10 and 5 min, respectively, after which 100 µL of 4% phosphoric acid was added. Two vials were also spiked with 5 µL L-PDC31 and L-4d, respectively, and immediately treated with phosphoric acid (time = 0 min). The vials were incubated for 5 min at 95 °C, cooled on ice for 2 min, treated with 600 µL of cold MeCN containing L-4f (0.02 mM) as internal standard, and incubated at –20 °C overnight. After the incubation period, the vials were vortexed for 2 min and centrifuged at 4 °C for 15 min. The supernatant was transferred into LC-MS vials and analyzed.
Results were expressed as: (AN/IS/AN0/IS0)∗100
AN and IS refer, respectively, to the analyte and internal standard MS signals. Both values are compared with initial injection at which time AN0 and IS0 were not incubated.

Data set [6] deals with LPS-induced preterm delivery in pregnant CD-1 mice. Briefly: LPS-induced mouse preterm birth (PTB) model. The format is in vivo, mouse (CD-1). The note with it: gestational day 16, LPS 10 μg/animal i.p., L-4d 20 mg/day/animal by s.c. osmotic pump after 0.1 mg/animal i.p. bolus, n = 5 (saline n = 4). As to the method:
as §1
Timed-pregnant CD-1 mice at 16 days gestation (normal term is 19.2 days) were anesthetized with isoflurane (2%). Primed osmotic pumps (Alzet pump, Alzet, Cupertino, CA) containing either saline (n = 4) or compound L-4d (20 mg/day/animal, n = 5) were respectively subcutaneously implanted on the backs of the animals; infusion of peptide was immediately preceded by bolus injection of peptide (0.1 mg/animal intraperitoneally). Within 15 min after placement of the pumps, animals were injected with lipopolysaccharide (LPS) Escherichia coli endotoxin (10 μg/animal intraperitoneally) to mimic the inflammatory/infectious component of human preterm labor. Animals were inspected every hour for the first 18 h and every 2 h thereafter to document the timing of birth. Results are expressed as percentages of animals delivered following the injection of LPS [57]. […]

The subject of data set [7] is murine myometrial tissue (KCl-induced tension). Kind of data set: mean tension induced by KCl (positive control) in mouse myometrial tissue. Also on record: species or system mouse (CD-1). The note with it: post-partum mouse myometrial tissue. As to the method: (§2) All the peptides were initially tested in an ex vivo mouse myometrial tissue contraction assay. Contractile activity was measured on tissue that was harvested post-partum and treated with prostaglandin F2α (PGFα) alone (control) or in the presence of peptides L-4b-4g, L-7, and L-8. […] Mean tension induced by KCl (as a positive control) was not affected by L-4d.
The uterus from the CD-1 mouse was obtained from the animal immediately after term delivery under anesthesia (2.5% isoflurane). Briefly, a midline abdominal incision was made and the uterine horns were rapidly excised, cleansed carefully of the surrounding connective tissues, and removed. Longitudinal myometrial strips (2 to 3 mm wide and 1 cm long) were dissected free from the uterus and mounted isometrically in organ tissue baths. The initial tension was set at 2 g. […] Isometric tension was measured by a force transducer and recorded by a BIOPAC data acquisition system (BIOPAC MP150, Montreal, PQ, Canada). […] Mean tension of spontaneous contractions was measured using a BIOPAC digital polygraph system (AcqKnowledge); the same parameters were also determined after addition of PGF2α in the presence or the absence of a 20 min-pretreatment with different FP inhibitors. […] Changes in mean tension (g) were expressed as percentages of the initial reference response (% of baseline).

For data set [8], the system named is murine myometrial tissue (PGF2α-induced contractions; FP). Briefly: ex vivo mouse myometrial tissue contraction assay (PGF2α-induced). Also on record: species or system mouse (CD-1). The note with it: post-partum CD-1 mouse myometrial strips, Krebs buffer pH 7.4, 37 °C, 20 min pretreatment with peptide at two concentrations, then PGF2α; 4–6 experiments per group, means ± SEM, t-test, p < 0.05 vs vehicle. As to the method:
as §2
Pregnant CD-1 mice (16-17 days gestation, term 19 days) were obtained from Charles River Inc. and used according to a protocol of the Animal Care Committee of Hôpital Sainte-Justine according to the principles of the Guide for the Care and Use of Experimental Animals of the Canadian Council on Animal Care. The animals were maintained on standard laboratory chow under a 12:12 light:dark cycle and allowed free access to chow and water.
The uterus from the CD-1 mouse was obtained from the animal immediately after term delivery under anesthesia (2.5% isoflurane). Briefly, a midline abdominal incision was made and the uterine horns were rapidly excised, cleansed carefully of the surrounding connective tissues, and removed. Longitudinal myometrial strips (2 to 3 mm wide and 1 cm long) were dissected free from the uterus and mounted isometrically in organ tissue baths. The initial tension was set at 2 g. The tissue baths contained 20 mL of Krebs buffer of the following composition (in mM): 118 NaCl, 4.7 KCl, 2.5 CaCl2, 0.9 MgSO4, 1 KH2PO4, 11.1 glucose, and 23 NaHCO3 (pH 7.4). The buffer was equilibrated with 95% oxygen/5% carbon dioxide at 37 °C. Isometric tension was measured by a force transducer and recorded by a BIOPAC data acquisition system (BIOPAC MP150, Montreal, PQ, Canada). Experiments were begun after 1 h equilibration. Mean tension of spontaneous contractions was measured using a BIOPAC digital polygraph system (AcqKnowledge); the same parameters were also determined after addition of PGF2α in the presence or the absence of a 20 min-pretreatment with different FP inhibitors. At the start of each experiment, mean tension of spontaneous myometrial contractions was considered as a reference response. Changes in mean tension (g) were expressed as percentages of the initial reference response (% of baseline).
At the start of each experiments, mean tension of spontaneous myometrial contractions was considered as a reference response. Increase in mean tension (%) was expressed as percentages of (X/Y)-100, where X is the change in mean tension (g) induced by PGF2α and Y is the initial reference response (g). Data are representative of 4–6 experiments per treated group. All results are expressed as means ± SEM and were compared by Independent t-tests. Statistical tests were performed with GraphPad Prism 4.3 software and p < 0.05 was considered statistically significant.

Data set [9] in a line: solubility in water (observation on handling). The format is physicochemical. The note with it: qualitative observation on the purified, freeze-dried peptide. As for the experimental part:
Linear sequences of L- and D-PDC31 linked to 2-chlorotrityl resin (L- and D-1) were obtained by solid phase peptide synthesis using standard Fmoc/t-Bu protocols. Peptide resin L-1 was treated with the appropriate aldehyde 2 (Scheme 1). The imine resin was washed to remove excess aldehyde, and reductive amination was performed using sodium cyanoborohydride to provide secondary amine resin 3. Removal of the protecting groups and resin cleavage were achieved using a cocktail of 95:2.5:2.5 TFA:TES:H2O to provide N-alkyl- and N-PEG-grafted peptides 4, which were purified by RP-HPLC (Table 1). […] An inseparable mixture of mono- and bis-N-alkyl peptides was isolated by HPLC from reaction with aldehyde of shorter chain length.
Increased lipophilic character may promote peptide aggregation and decrease solubility in aqueous solvent. […] For biological assays, solubility issues were surmounted by forming salts and using small amounts of DMSO. The influence of their amphiphilic character during purification by RP-HPLC and double alkylation from the reductive amination sequence may account for the lower isolated yields of peptides 4, 7 and 8.

Entries after “also recorded” stand apart in the source; their conditions may differ. Residues, ends and D or L forms follow the SMILES beside them.

Broadly, the IC50 is the concentration needed to halve the response being measured.

On to “H-ile-leu-Gly-his-cit-asp-tyr-lys-OH [PDC31]”, for which, in data set [1], the “safety and effect on intrauterine pressure and pain” value was “safe in reducing intrauterine pressure and pain associated with excessive uterine contractility”. The “ability to delay labor in the PTB model” value in [2] is “delay labor”. Moreover, the “effect on spontaneous and PGF2α-induced contractions in postpartum mice myometrium” value in [3] is “reduce both the strength and length of spontaneous and PGF2α-induced contractions”. For the same molecule, in data set [4] (FP inhibition), the efficacy is listed as over 85%. For the same molecule, in data set [4] (FP inhibition, read-out: potency (IC50)), the half-inhibitory concentration (IC50) is 13 nM.
As for `CC[C@H](C)[C@H](N)C(=O)N[C@@H](CC(C)C)C(=O)NCC(=O)N[C@@H](Cc1c[nH]cn1)C(=O)N[C@@H](CCCNC(N)=O)C(=O)N[C@@H](CC(=O)O)C(=O)N[C@@H](Cc1ccc(O)cc1)C(=O)N[C@@H](CCCCN)C(=O)O` [L-PDC31, H-Ile-Leu-Gly-His-Cit-Asp-Tyr-Lys-OH] (HELM PEPTIDE1{I.L.G.H.[Cit].D.Y.K}$$$$V2.0), the “time to complete degradation in mouse plasma” value in [5] (5 µL 0.4 mM peptide in 95 µL serum) was at most 5 min. In data set [5], the “stability in mouse plasma, in words” value is on record as “rapidly degraded in plasma”.
Take “H-ile-leu-Gly-his-arg-asp-tyr-lys-OH [PDC113]”: in [4], the “activity as FP inhibitor, in words” value was “active FP inhibitor”.
On to `CCCCCCCCCCCCN[C@H](C(=O)N[C@@H](CC(C)C)C(=O)NCC(=O)N[C@@H](Cc1c[nH]cn1)C(=O)N[C@@H](CCCNC(N)=O)C(=O)N[C@@H](CC(=O)O)C(=O)N[C@@H](Cc1ccc(O)cc1)C(=O)N[C@@H](CCCCN)C(=O)O)[C@@H](C)CC` [L-4d, N-Dodecyl-Ile-Leu-Gly-His-Cit-Asp-Tyr-Lys-OH] (HELM PEPTIDE1{[CCCCCCCCCCCCN[C@H](C(=O)[*:2])[C@@H](C)CC].L.G.H.[Cit].D.Y.K}$$$$V2.0), for which the “ability to delay labor (time of delivery) in LPS-induced PTB model” value in data set [6] is “unable to exhibit a statistically significant reduction in the time of delivery; also recorded: failed to prolong labor in vivo; also recorded: inactive in vivo; also recorded: no significant ability to delay labor”. Also, the “stability in mouse plasma, in words” value in [5] was “still present after 2 hours of incubation”. The “effect on mean tension induced by KCl (positive control)” value in data set [7] is reported as “not affected”. In [8], the “effect on PGF2α-induced contractions (mean tension) of myometrial tissue” value is reported as “significant reduction of contractions; also recorded: able to reduce uterine contractions induced by PGF2α; also recorded: significant reduction of PGF2α-induced contractility”.
For `CC[C@H](C)[C@H](NCC=C(C)CCC=C(C)CCC=C(C)C)C(=O)N[C@@H](CC(C)C)C(=O)NCC(=O)N[C@@H](Cc1c[nH]cn1)C(=O)N[C@@H](CCCNC(N)=O)C(=O)N[C@@H](CC(=O)O)C(=O)N[C@@H](Cc1ccc(O)cc1)C(=O)N[C@@H](CCCCN)C(=O)O` [L-7, N-Farnesyl-Ile-Leu-Gly-His-Cit-Asp-Tyr-Lys-OH] (HELM PEPTIDE1{[CC[C@H](C)[C@H](NCC=C(C)CCC=C(C)CCC=C(C)C)C(=O)[*:2]].L.G.H.[Cit].D.Y.K}$$$$V2.0), the “effect on PGF2α-induced contractions (mean tension) of myometrial tissue” value in [8] is reported as “Neither PEGylated peptide L-4g nor N-farnesyl peptide L-7 exhibited activity”. In addition, the solubility in water entry in data set [9] is given as “soluble in water”.
